Test results from PMC8831520, “Small molecule SWELL1 complex induction improves glycemic control and nonalcoholic fatty liver disease in murine Type 2 diabetes” (Nature Communications, 2022).

Columns and labels:
[1] = tested on: pancreatic islets of T2D mice; test: Insulin secretion of treated T2D mice (serum insulin, islet perifusion GSIS); format: in vivo, mouse
Procedure: Mice were fasted for 6 h prior to glucose tolerance tests (GTT). Baseline glucose levels at 0 min timepoint (fasting glucose, FG) were measured from a blood sample collected from tail snipping using glucometer (Bayer Healthcare LLC). Either 1 or 0.75 g D-Glucose/kg body weight were injected (i.p.) for lean or HFD mice, respectively and glucose levels were measured at 5 or 7, 15, 30, 60, 90, and 120 min timepoints after injection. For insulin tolerance tests (ITTs), the mice were fasted for 4 h. Similar to GTTs, the baseline blood glucose levels were measured at 0 min timepoint and 15, 30, 60, 90, and 120 min timepoints post-injection (i.p.) of insulin (HumulinR, 1 U/kg bodyweight for lean mice or 1.25 U/kg body weight for HFD mice). […] The collected plasma was then measured for insulin content by using Ultra-Sensitive Mouse Insulin ELISA Kit (Crystal Chem, #90080). All mouse studies were performed in a blinded fashion.

In vivo pharmacokinetics = test: In vivo pharmacokinetics; design: species or system mouse; details: for T-half / AUC(0-inf) / Cmax / Oral Bioavailability (AUCp.o./AUCi.v.): 5 mg/kg; for T-half / AUC(0-inf) / Cmax / Oral Bioavailability (AUCp.o./AUCi.v.) / time plasma concentrations exceed those sufficient for induction of SWELL1 signaling activity (>~100 nM): mice; for T-half / AUC(0-inf) / Cmax: plasma; for AUC(0-inf) / Cmax: male, C57/BL6, mouse; for time plasma concentrations exceed those sufficient for induction of SWELL1 signaling activity (>~100 nM): 5 mg/kg i.p. or p.o.
Procedure: Male C57/BL6 mice were used in the study and assessed for a single dose (5 mg/kg) administration. The compounds were prepared in Cremaphor for i.p. and p.o dose routes and in 5% ethanol, 10% Tween-20, and water mix for i.v. route at a final concentration of 1 mg/mL. […] The blood samples were collected in tubes with K2 EDTA anticoagulant and further processed to collect plasma by centrifugation at 1383×g at 5 °C for 10 min. Samples were further processed in LC/MS to determine the concentration of the compounds. Non-compartmental analysis was performed to obtain the PK parameters using the PKPlus software package (Simulation Plus). The area under the plasma concentration-time curve (AUCinf) was calculated from time 0 to infinity where the Cmax is the maximal concentration achieved in plasma and t1/2 is the terminal elimination half-life. Oral bioavailability was calculated as AUCOral/AUCIV*100.

[2] = tested on: T1, SWELL1-LRRC8 channels in the closed state, HEK-293 cells; test: ICl,SWELL inhibition on preincubation before hypotonic activation (closed channel), patch-clamp; format: cell-based; details: 1 μM applied 30 min prior to hypotonic activation, vs vehicle or Inactive compounds
T1 construct: applied when the endogenous HEK-293 cell ICl,SWELL current density reached 30 pA/pF; endogenous in cells; host or cells: HEK-293 (ATCC, #CRL-1573)

cadaveric human islets = test: GSIS perifusion of palmitate-treated human islets; format: cell-based; details: 10 µM for 4 days prior to and during 1 mM palmitate 16 h, washed off during GSIS
Procedure: Cadaveric human islets were obtained from the Integrated Islet Distribution Program (IIDP), Prodo Laboratories, and the Alberta Diabetes Institute Islet Core. The human islets obtained from the Integrated Islet Distribution program and Prodo laboratories were exempt from Institutional Review Board approval under 45 CRR 46.101 (b) category (4) and 45 CFR 46.102 h, respectively. Human islets were obtained from the Alberta Diabetes Institute IsletCore at the University of Alberta in Edmonton (http://www.bcell.org/adi-isletcore.html) with the assistance of the Human Organ Procurement and Exchange (HOPE) program, Trillium Gift of Life Network (TGLN), and other Canadian organ procurement organizations. Islet isolation was approved by the Human Research Ethics Board at the University of Alberta (Pro00013094). All donors’ families gave informed consent for the use of pancreatic tissue in research. Human islets were cultured in RPMI media with 2% FBS overnight. […] Insulin concentrations were further determined using a commercially available ELISA kit (Mercodia). The area under the curve (AUC) for the high-glucose-induced insulin release was calculated for time points between 50 to 74/84 min. At the completion of the experiment, islets were further lysed by the addition of RIPA buffer and the amount of insulin was detected by ELISA.

[3] = tested on: T2, SWELL1 protein in 3T3-F442A adipocytes; test: SWELL1 protein under glucolipotoxic stress (palmitate + glucose); format: cell-based, murine; details: 10 µM 96 h pretreatment, then 1 mM palmitate + 25 mM glucose 16 h
T2 construct: host or cells: 3T3-F442A preadipocytes and differentiated adipocytes (wild type)
Procedure: In the case of 3T3-F442A adipocytes, the WT and KO cells were treated with either vehicle (DMSO), 1 or 10 µM SN-40X (after 7–11 days of differentiation) for 96 h and then stimulated with 0 and 10 nM insulin/serum-containing media with vehicle (DMSO) or SN-40X for 15 min for SWELL1 detection. […] To simulate glucolipotoxicity, 8 mM sodium palmitate was dissolved in 18.4% fatty-acid free BSA at 37 °C in DMEM medium with 25 mM glucose to obtain a conjugation ratio of 1:3 palmitate:BSA[80].

| Structure (SMILES) | impaired GSIS (serum insulin, islet perifusion) ([1]; HFD mice, 21 weeks HFD) | T-half (In vivo pharmacokinetics; Intraperitoneal) | T-half (In vivo pharmacokinetics; Intravenous) | T-half (In vivo pharmacokinetics; Oral) | PK in adipose tissue (In vivo pharmacokinetics; iWAT, 5 mg/kg i.p. and p.o.) | AUC(0-inf) (In vivo pharmacokinetics; ip, Intraperitoneal) | Cmax (In vivo pharmacokinetics; ip, Intraperitoneal) | AUC(0-inf) (In vivo pharmacokinetics; Intravenous) | Cmax (In vivo pharmacokinetics; Intravenous) | AUC(0-inf) (In vivo pharmacokinetics; Oral) | Cmax (In vivo pharmacokinetics; Oral) | Oral Bioavailability (AUCp.o./AUCi.v.) (In vivo pharmacokinetics) | time plasma concentrations exceed those sufficient for induction of SWELL1 signaling activity (>~100 nM) (In vivo pharmacokinetics) | subsequent hypotonic activation of ICl,SWELL [2] | glucose-stimulated insulin secretion after palmitate (cadaveric human islets) | prevention of palmitate/glucose-induced reduction of SWELL1 protein [3] | insulin secretion in perifusion GSIS ([1]; islets of HFD-T2D mice, compared to Inactive 1) |
| --- | --- | --- | --- | --- | --- | --- | --- | --- | --- | --- | --- | --- | --- | --- | --- | --- | --- |
| CCCCC1(C2CCCC2)Cc2cc(OCCCC(=O)O)c(Cl)c(Cl)c2C1=O (stereo not drawn) [SN-401, 4-((2-butyl-6,7-dichloro-2-cyclopentyl-1-oxo-2,3-dihydro-1H-inden-5-yl)oxy)butanoic acid] | significantly improved | 2.056 h | 1.428 h | 2.585 h | closely tracks serum concentrations | 23000 ng·h/mL | 4370 ng/mL | 5960 ng·h/mL | 5440 ng/mL | 4680 ng·h/mL | 781 ng/mL | 79% | 8 to 12 h | markedly suppressed and delayed | normalized | entirely prevented | – |
| CCCCC1(C2CCCC2)Cc2cc(OCCCCCC(=O)O)c(Cl)c(Cl)c2C1=O (stereo not drawn) [SN-406, 6-((2-butyl-6,7-dichloro-2-cyclopentyl-1-oxo-2,3-dihydro-1H-inden-5-yl)oxy)hexanoic acid] | – | 1.809 h | 0.7689 h | 2.058 h | – | 18200 ng·h/mL | 4300 ng/mL | 6530 ng·h/mL | 15100 ng/mL | 3130 ng·h/mL | 661 ng/mL | 48% | 8 to 12 h | markedly suppressed and delayed | – | entirely prevented | significantly augmented |
